{"source": "patent US8394414B2", "about": "“Method for drug delivery to the pulmonary system” (MannKind Corporation, priority 1995, dated 2013)", "test": "in vivo", "conditions": "sheep, sc", "experimental": "Sheep (approximately 100 kg) were housed at SUNY Stony Brook Health Sciences Center. Animals were anesthetized with acepromazine/thiopental sodium. A suspense of diketopiperazine microparticle/sCT (10.04 mg/mL in 0.9% saline) was instilled in each lung of each sheep. A solution of sCT (10 mg/mL in 0.9% saline) was administered by subcutaneous injection to control animals. An intravenous catheter was placed in the cephalic vein of each anesthetized animal for blood sampling.\nThe following dosing solutions were prepared on the day of the experiment. The volume of the dose delivered was calculated based on the actual weight of the animal as described below.\nBlood samples were drawn at the following time points: −5, 0 (predose), 1, 3, 5, 10, 15, 30, 45, 60, 90 minutes, 2, 4, and 6 hours. […]\nPlasma sCT concentration was determined using radioimmunoassay (Research and Diagnostic Antibodies, Berkeley, Calif., catalog #K-1235).\nThe pharmacokinetics of sCT in sheep was determined after lung instillation of a formulation of sCT in diketopiperazine microparticle (2.47% by weight sCT) at a sCT dose of 100 μg/kg. […]\nThe truncated AUC (0 to 6 hours) was calculated for each animal using the trapezoidal rule. The bioavailability (F %) for each animal was calculated from the ration of the AUCs for the pulmonary and subcutaneous administrations."}
{"smiles": "CC(C)C[C@H](NC(=O)[C@H](CCCCN)NC(=O)CNC(=O)[C@H](CC(C)C)NC(=O)[C@@H](NC(=O)[C@@H]1CSSC[C@H](N)C(=O)N[C@@H](CO)C(=O)N[C@@H](CC(N)=O)C(=O)N[C@@H](CC(C)C)C(=O)N[C@@H](CO)C(=O)N[C@@H]([C@@H](C)O)C(=O)N1)C(C)C)C(=O)N[C@@H](CO)C(=O)N[C@@H](CCC(N)=O)C(=O)N[C@@H](CCC(=O)O)C(=O)N[C@@H](CC(C)C)C(=O)N[C@@H](Cc1c[nH]cn1)C(=O)N[C@@H](CCCCN)C(=O)N[C@@H](CC(C)C)C(=O)N[C@@H](CCC(N)=O)C(=O)N[C@H](C(=O)N[C@@H](Cc1ccc(O)cc1)C(=O)N1CCC[C@H]1C(=O)N[C@@H](CCCNC(=N)N)C(=O)N[C@H](C(=O)N[C@@H](CC(N)=O)C(=O)N[C@H](C(=O)NCC(=O)N[C@@H](CO)C(=O)NCC(=O)N[C@H](C(=O)N1CCC[C@H]1C(N)=O)[C@@H](C)O)[C@@H](C)O)[C@@H](C)O)[C@@H](C)O", "note": "[sCT, salmon calcitonin]", "values": [{"measurement": "Tmax", "value": 2, "unit": "h"}, {"measurement": "AUC(0-t)", "setting": "100 ug/kg", "value": 38.8, "unit": "ng·h/mL"}]}
